According to patent US20240398942A1, “USE OF ANTI-CD40 ANTIBODY” (CHIA TAI TIANQING PHARMACEUTICAL GROUP CO., LTD., priority 2021, published 2024):
Structures can show the parent of a compound that is named as a salt.

Assays:
[1] = test system: human B-cell lymphoma Ramos cells; test: Efficacy of anti-CD40 antibody and anlotinib, Ramos subcutaneous xenograft mouse model; type: in vivo
Method: Human B-cell lymphoma Ramos cells (purchased from the Cell Bank of the Chinese Academy of Sciences) were cultured in an RPMI1640 medium containing 10% of fetal bovine serum and penicillin-streptomycin. The cells were inoculated in a 37° C./5% CO2 incubator until the logarithmic growth phase and collected for grafting.
The mice used in this study were NOD-Scid mice (purchased from Shanghai Lingchang Biotechnology Co., Ltd.) aged about 6 weeks and bred in specific pathogen-free conditions in 12/12-hour light/dark cycles. The health status of the animals was monitored daily.
Each mouse was inoculated subcutaneously with 1×10^7 Ramos cells. When the tumor grew to 80-100 mm^3, the mice were divided into groups of 10 according to the tumor volume. The administration regimen is shown in Table 10, with the first dosing day designated as DO. Antibody huC1H1-V2 and IgG2 (Biointron, Cat. No. B107803) were both formulated to desired concentrations with normal saline, and anlotinib dihydrochloride was formulated at desired concentrations with distilled water. At the end of study (D14), the animals were sacrificed by CO2 anesthesia and dissected to give the tumors. The tumors were photographed.
The tumor diameters were measured twice weekly with a vernier caliper. Tumor volume (V)=½×a×b^2, wherein a and b denote length and width, respectively; T/C (%)=(T−T0)/(C−C0)×100, wherein T and C refer to the tumor volumes of the treatment group and the IgG2 control group on day 14, respectively, and TO and C0 refer to the tumor volumes of the treatment group and IgG2 control group on day 0, respectively; the tumor growth inhibition % (TGI %)=100−T/C (%). When the tumor regressed, the tumor growth inhibition % (TGI %)=100−(T−T0)/T0×100. If the tumor volume was smaller than the initial volume, i.e., T<T0 or C<C0, the outcome was defined as partial regression (PR); if the tumors completely disappeared, i.e., the outcome was defined as complete regression (CR).

[2] = molecular target: Cynomolgus monkey CD40-his; test: Biacore surface plasmon resonance affinity and binding kinetics; conditions: for Kd: dissociation rate
Text: (§1) The affinity and binding kinetics of the anti-CD40 antibody in the present application were characterized by a Biacore T200 system (GE Healthcare, Pittsburgh, PA, USA).
(§2) Briefly, a goat anti-human IgG (GE Healthcare, Cat. No. BR100839, human antibody capture kit) was covalently linked to a CM5 chip (GE Healthcare, Cat. No. BR100530, carboxymethylated dextran-coated chip) via the primary amine group using a standard amine coupling kit supplied by Biacore (GE Healthcare, Pittsburgh, PA, USA). Unreacted portions on the biosensor surface were blocked with ethanolamine. Then, the anti-CD40 antibody of the present application and two benchmark antibodies (BM1 (dacetuzumab, Genentech Inc., also referred to CD40-BM1, prepared in-house; the heavy and light chain amino acid sequences are set forth in SEQ ID NOs: 40 and 41, respectively) and BM2 (selicrelumab, Abgenix Inc., also referred to CD40-BM2, prepared in-house; the heavy and light chain amino acid sequences are set forth in SEQ ID NOS: 42 and 43, respectively)) at a concentration of 66.67 nM were directed through the chip at a flow rate of 10 μL/min. Then, serially diluted recombinant human CD40-his (Acro biosystems, Cat. No. CD0-H5228, serially 2-fold diluted from 80 nM in HBS-EP^+ buffer (supplied by Biacore)) or cynomolgus monkey CD40-his protein (Acro biosystems, Cat. No. CD0-C52H6, serially 2-fold diluted from 80 nM in HBS-EP^+ buffer (supplied by Biacore)) was directed through the chip at a flow rate of 30 μL/min. The antigen-antibody binding kinetics was tracked for 2 min and the dissociation kinetics was tracked for 10 min. The association and dissociation curves were fitted to a 1:1 Langmuir binding model using BIAcore evaluation software. KD, Ka, and Kd values were determined.

[3] = molecular target: T1, Human CD40-his (Homo sapiens, UniProt P25942); test: as above; conditions: for Kd: dissociation rate
T1 construct: His; purchased Acro biosystems CD0-H5228
Text: as §1, §2

[4] = molecular target: T1, Human CD40-his; test: Octet kinetics of humanized C1H1 antibodies; type: binding; conditions: Table 3, Octet
Method: After six days of culture in a shake flask, the cell supernatant containing the humanized antibodies huC1H1-V1 to huC1H1-V4 was harvested and the binding affinity of the antibodies to human CD40 was determined on an Octet system (Fortebio, Octet RED 96) according to the following procedures. Briefly, an anti-human IgG Fc capture (AHC) biosensor (from ForteBio) was pre-soaked in a 10 mM glycine solution (pH 1.5) for 3 s, and then soaked in a running buffer (PBST containing 0.5% w/v of BSA) for 3 s. The pre-soaking and soaking procedures were repeated 3 times. Then, the sensor was soaked in the cell supernatant containing the humanized anti-CD40 antibody, chimeric antibody C1H1 dissolved in HBS-EP^+ buffer at a concentration of 5 μg/mL, or the benchmark dissolved in HBS-EP^+ buffer at a concentration of 5 μg/mL for 120 s, and then soaked in the running buffer for 5 min. The new baseline was run in the running buffer for 180 s. The sensor was then soaked for 120 s in human CD40-his protein (Acro biosystems, Cat. No. CD0-H5228) 2-fold serially diluted from 40 nM in the running buffer and for 10 min in the running buffer […]. Finally, the sensor was pre-soaked in a 10 mM glycine solution (pH 1.5) for 3 s, and then soaked in the running buffer for 3 s. The pre-soaking and soaking procedures were repeated 3 times. […]

[5] = Table 5, Biacore, purified antibodies
[6] = Table 2, Biacore, association rate

T1 sequence (P25942 21-277): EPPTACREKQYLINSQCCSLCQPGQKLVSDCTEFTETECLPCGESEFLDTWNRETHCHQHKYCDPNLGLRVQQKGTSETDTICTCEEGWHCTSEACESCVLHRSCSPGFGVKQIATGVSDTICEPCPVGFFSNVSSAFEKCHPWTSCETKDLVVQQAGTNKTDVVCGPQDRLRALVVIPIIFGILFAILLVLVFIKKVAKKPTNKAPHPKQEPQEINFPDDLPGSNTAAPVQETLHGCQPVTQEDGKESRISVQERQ

Kd ([2]; Table 5, Biacore) [s⁻¹] | Ka [2, 5] [M⁻¹ s⁻¹] | Kd ([3]; Table 5, Biacore) [s⁻¹] | Ka [3, 5] [M⁻¹ s⁻¹] | Kd ([4]; dissociation rate) [s⁻¹] | Ka ([4]; humanized antibodies in cell supernatant, chimeric and benchmark 5 μg/mL) [M⁻¹ s⁻¹] | Ka [2, 6] [M⁻¹ s⁻¹] | Kd ([2]; Table 2, Biacore) [s⁻¹] | Ka [3, 6] [M⁻¹ s⁻¹] | Kd ([3]; Table 2, Biacore) [s⁻¹] | Molecule | Mean tumor volume (mean ± SD) D 0 ([1]; baseline, huC1H1-V2 0.5 mg/kg i.p. once every 2 days × 8, anlotinib dihydrochloride 1 mg/kg intragastric daily × 15) [mm^3] | Mean tumor volume (mean ± SD) D 14 ([1]; huC1H1-V2 0.5 mg/kg i.p. once every 2 days × 8, anlotinib dihydrochloride 1 mg/kg intragastric daily × 15) [mm^3] | TGI D 14 (tumor growth inhibition rate) ([1]; huC1H1-V2 0.5 mg/kg i.p., anlotinib dihydrochloride 1 mg/kg intragastric) [%] | Tolerability (symptoms such as weight loss) ([1]; huC1H1-V2 0.5 mg/kg i.p., anlotinib dihydrochloride 1 mg/kg intragastric, tumor-bearing mice) | T/C D 14 ([1]; vs IgG2 group, huC1H1-V2 0.5 mg/kg i.p., anlotinib dihydrochloride 1 mg/kg intragastric) [%]
– | – | – | – | – | – | – | – | – | – | COc1cc2c(Oc3ccc4[nH]c(C)cc4c3F)ccnc2cc1OCC1(N)CC1 [anlotinib dihydrochloride, 1-[[[4-(4-fluoro-2-methyl-1H-indol-5-yl)oxy-6-methoxyquinolin-7-yl]oxy]methyl]cyclopropylamine, reference compound] | 85.3 ± 3.8 | 1602.8 ± 137.1 | 56 | well tolerated | 44
0.001508 | 173000 | 0.001616 | 206000 | 0.000979 | 874000 | – | – | – | – | BM2: benchmark antibody selicrelumab, Abgenix Inc., prepared in-house; heavy and light chain SEQ ID NOs: 42 and 43 [reference compound] | – | – | – | – | –
0.007397 | 764000 | 0.007562 | 803000 | – | – | 623000 | 0.006164 | 739000 | 0.006556 | BM1: benchmark antibody dacetuzumab, Genentech Inc., prepared in-house; heavy and light chain SEQ ID NOs: 40 and 41 [reference compound] | – | – | – | – | –
